± gives the expanded uncertainty stated by the source.
Assays:
[1] = Crystal; visual observation
[2] = xn = mol fraction of the nth substance listed; conditions: 101 kPa, Liquid, Archimedean displacement method, x1 = 0.5

| Compound | Normal melting temperature [1] [°C] | mass density ([2]; 1065 K) [kg/m3] | mass density ([2]; 1069 K) [kg/m3] | mass density ([2]; 1072 K) [kg/m3] | mass density ([2]; 1073 K) [kg/m3] | mass density ([2]; 1074 K) [kg/m3] | mass density ([2]; 1078 K) [kg/m3] | mass density ([2]; 1084 K) [kg/m3] |
| --- | --- | --- | --- | --- | --- | --- | --- | --- |
| [Ag][I] [silver iodide] | 559 ± 1 | – | – | – | – | – | – | – |
| [Ag][I] [silver iodide] + [Cl-].[Na+] | – | 3670 ± 37 | 3669 ± 37 | 3664 ± 37 | 3663 ± 37 | 3660 ± 37 | 3657 ± 37 | 3652 ± 37 |
| [Cl-].[Na+] [sodium chloride] | 801 ± 1 | – | – | – | – | – | – | – |
